Results taken from article PMC8521518, “Nicotinamide Adenine Dinucleotide-Dependent Flavin Oxidoreductase of Mycoplasma hyopneumoniae Functions as a Potential Novel Virulence Factor and Not Only as a Metabolic Enzyme” (Frontiers in Microbiology, 2021).

Target: T1, rNFOR (Mhp NFOR, NADH-dependent flavin oxidoreductase) (Mesomycoplasma hyopneumoniae, UniProt E4QSY0)
T1 construct: gene baiH; 44 kDa on gel
Test: NADH oxidation
Type: biochemical
Conditions: 0.5 mM NADH, 10 uM FMN (5 min preincubation), 0.1 M potassium phosphate pH 7.5, 1 mM DTT, 25 C

T1 sequence (E4QSY0 entry or part of it): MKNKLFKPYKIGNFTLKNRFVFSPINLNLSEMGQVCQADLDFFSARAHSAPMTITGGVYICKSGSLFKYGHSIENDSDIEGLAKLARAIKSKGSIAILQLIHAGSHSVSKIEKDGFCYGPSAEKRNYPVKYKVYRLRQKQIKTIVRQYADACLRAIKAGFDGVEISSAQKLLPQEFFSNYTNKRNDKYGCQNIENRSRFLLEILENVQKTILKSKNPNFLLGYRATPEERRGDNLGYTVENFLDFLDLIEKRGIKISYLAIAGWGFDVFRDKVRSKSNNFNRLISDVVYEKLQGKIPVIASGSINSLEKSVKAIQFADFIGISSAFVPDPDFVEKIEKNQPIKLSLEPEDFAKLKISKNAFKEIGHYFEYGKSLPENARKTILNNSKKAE

In the case of `NC(=O)C1=CN([C@@H]2O[C@H](COP(=O)(O)OP(=O)(O)OC[C@H]3O[C@@H](n4cnc5c(N)ncnc54)[C@H](O)[C@@H]3O)[C@@H](O)[C@H]2O)C=CC1` [NADH], the “NADH oxidation, absorbance at 340 nm” value was “enzymatic activity of purified rNFOR was determined by calculating the oxidation of NADH to NAD^+”.
